The text below walks through data of patent US20250034520A1, “INCREASING DEVELOPMENTAL POTENTIAL OF HUMAN PREIMPLANTATION EMBRYOS BY REDUCING GENETIC INSTABILITY, ANEUPLOIDIES AND CHROMOSOMAL MOSAICISM” (THE TRUSTEES OF COLUMBIA UNIVERSITY IN THE CITY OF NEW YORK, priority 2022, published 2025).

Structures are written as SMILES.

Holding throughout (assay type): cell-based
One assay relates to mouse 1-cell embryos. Description: timing of mitotic entry in mouse 1-cell embryos. To be noted: application in G2 phase, depending on the time point of application. The protocol: (§1) Embryos, mouse and human, were cultured in Global Total (Life-Global) for the duration of the experiments and with added compounds as outlined below. Incubation in RNA polymerase inhibitors triptolide (1 mM) or alpha amanitin (20 mg/ml) was performed from the 2PN stage (day1) to day3 of human development. Incubation in aphidicolin was performed at 2 mM. […] Mirin was used at a concentration of 50 mM. Olaparib was used to inhibit PARP at a concentration of 10 mM. All experiments were conducted during incubation at 37° C. with 5% CO2 and 19-20% O2. Chemical stock solutions were prepared in DMSO at concentrations at least 1000× higher than the final concentration.
(§2) Mouse oocytes were activated at 1-6 hours post retrieval using 2 mM ionomycin (Sigma Aldrich) in Global Total medium for 5 minutes at 37° C. followed by culture in 10 mM puromycin and 5 mg/ml cytochalasin B for 3 hours, then cytochalasinB only for 2 hours and 10 minutes to prevent second polar body extrusion.

The subject of assay [1] is mouse parthenogenetic zygotes. Description: anaphase figures at the first mitosis, mouse parthenogenetic zygotes. The protocol: as §1, §2
Following the experimental exposures, mouse and human embryos were fixed in 2% paraformaldehyde (PFA) and 0.25% Triton X-100 in PBS for 10 minutes at room temperature, serially washed in phosphate-buffered solution (PBS) at room temperature, then stored in PBS at 4° C. until staining and imaging. Embryos were placed in 10-20 ml droplets of primary antibody solution within plastic tissue culture dishes covered with mineral oil for 1 hour at room temperature, serially washed (×2) in PBS containing 0.01% Triton X-100 to prevent embryos sticking to oil, then transferred to 10-20 ml secondary antibody solution and Hoechst (dilution 1:500) for 30 minutes. Embryos were then serially washed (×2) and placed in 5 ml droplets of PBS with 0.5% serum albumin in uncoated glass bottom dishes (Mattek) covered with embryo culture oil for imaging. The following primary antibodies were used across experiments as described above: Oct-4, γH2AX, RPA32, RPA32 S4/S8, RPA32 S33, 53BP1, RAD51, Centromere, and phospho-CHK1. Phospho-specific antibodies were quality controlled through ATR dependence of foci formation in mouse zygotes, and for γH2AX also in human zygotes. […] The appropriate secondary antibodies conjugated with Alexa Fluor 488, Alexa Fluor 555, CF 568, or Alexa Fluor 647 were diluted at 1:500-1:1000. Ethynyl deoxyuridine (EdU) labeling of zygotes and embryos was performed using the labeling kit (Thermo Fisher Scientific) as described by the manufacturer. 10 mM EdU was added to culture medium for 1 h at the indicated time points, and cells were harvested and fixed thereafter. 5-ethynyl uridine (EU) labeling was performed by incubating day3 cleavage stage embryos for 4 hours in Global total containing 0.2 mM EU.

In another assay the test system is human embryos. Description: nucleation and development of human embryos.
Source text: Cryopreserved human cleavage-stage and blastocyst embryos and unfertilized oocytes were anonymously donated from individuals and couples who provided consent for use in research. Embryos were of good quality and had been cryopreserved for potential clinical use but were then no longer needed and donated for research. The cause of treatment is not disclosed. Range of maternal age of donated embryos is between 27-43. Embryos of both sexes were used, as provided by the unbiased fertilization of oocytes with sperm carrying either a Y or X chromosome. Cleavage stage embryos were thawed using the one-step thaw protocol using Global total with HEPES. Blastocyst stage embryos were thawed using the Quinn's Advantage thaw kit, then exposed to experimental conditions as outlined below. Vitrified embryos were thawed with the ECMPC warming solution set. Embryo culture was performed in Global Total. All experiments were conducted during incubation at 37° C. with 5% CO2 and 20% 02.
as §1
Following the experimental exposures, mouse and human embryos were fixed in 2% paraformaldehyde (PFA) and 0.25% Triton X-100 in PBS for 10 minutes at room temperature, serially washed in phosphate-buffered solution (PBS) at room temperature, then stored in PBS at 4° C. until staining and imaging. Embryos were placed in 10-20 ml droplets of primary antibody solution within plastic tissue culture dishes covered with mineral oil for 1 hour at room temperature, serially washed (×2) in PBS containing 0.01% Triton X-100 to prevent embryos sticking to oil, then transferred to 10-20 ml secondary antibody solution and Hoechst (dilution 1:500) for 30 minutes. Embryos were then serially washed (×2) and placed in 5 ml droplets of PBS with 0.5% serum albumin in uncoated glass bottom dishes (Mattek) covered with embryo culture oil for imaging. […]
Embryos were imaged with confocal microscopy using a Zeiss LSM (LSM 710) at a magnification of 63× and the Zeiss Zen software. […] Cell numbers and staining foci numbers were counted manually. […]

Regarding `C[C@@]1(CO)[C@H](O)CC[C@@]2(C)[C@H]1CC[C@H]1C[C@@H]3C[C@@]12CC[C@]3(O)CO` [aphidicolin], in the assay with mouse 1-cell embryos, the mitotic entry entry is listed as “inhibited”. The “embryos with abnormal anaphase, range per experiment” value in assay [1] (aphidicolin in G2 phase) is on record as 7%-30%. For the same compound, the “embryos with abnormal anaphase” value in assay [1] (aphidicolin in G2 phase, controls 191/191 normal) was 17.4%. Also, in assay [1] (applied only after pronuclear envelope breakdown), the “effect on chromosome segregation at anaphase” value is recorded as “inconsequential”. Also, the “frequency of abnormal anaphase figures” value in assay [1] (both ATR kinase inhibitor and aphidicolin in G2 phase) is 63%. Also, in the assay with human embryos (6 parthenogenetically activated embryos, aphidicolin and G2 checkpoint kinase inhibitor at 15.5 h), the “formation of multinucleate cells” value was “uniformly resulting in the formation of multinucleate cells”. Moreover, in the assay on human embryos (aphidicolin-treated human parthenotes), the “failure to polarize chromosomes in the nucleus” value is 16/17.
